Measured values taken from US9012655B2, “Antimicrobial/adjuvant compounds and methods” (Denouamed, Inc., priority 2011, dated 2015).
Values after ≈ are worked out from the molar mass of the structure shown.

Legend:
Type in all cases: cell-based
[1] = test system: Staphylococcus epidermidis NRS7; assay: MIC panel of challenge pathogens (CLSI); conditions: Staphylococcus epidermidis NRS7
Summary of the method: (§1)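 Broth microdilution per CLSI guidelines. Final inoculum 2-8×10^5 CFU/ml, compounds serially two-fold diluted from 128 mg/L top concentration. Incubated in the dark at 30-37° C for 24-48 h, aerobic or anaerobic as appropriate. MIC read visually as 100% inhibition endpoint; MIC50 and MIC80 also reported.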

[2] = test system: Staphylococcus aureus NRS2 (ATCC700698); assay: MIC panel of challenge pathogens (CLSI); conditions: Staphylococcus aureus NRS2 (ATCC700698)
Summary of the method: as §1

[3] = test system: Staphylococcus aureus AUR58 7005; assay: MIC panel of challenge pathogens (CLSI); conditions: AUR587005, Staphylococcus aureus AUR58 7005
Summary of the method: as §1

[4] = test system: Enterococcus faecalis ATCC29212; assay: MIC panel of challenge pathogens (CLSI); conditions: Enterococcus faecalis ATCC29212
Summary of the method: as §1

[5] = test system: Staphylococcus aureus EUP SAU040; assay: MIC panel of challenge pathogens (CLSI); conditions: EUPSAU040, Staphylococcus aureus EUP SAU040
Summary of the method: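 Broth microdilution per CLSI guidelines; final inoculum 2-8×10^5 CFU/ml in the appropriate broth. Compounds serially diluted two-fold from a top assay concentration of 128 mg/L. Plates incubated in the dark at 30-37° C for 24-48 hours, read visually; MIC taken as 100% inhibition endpoint.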

[6] = test system: Staphylococcus aureus NRS384; assay: MIC panel of challenge pathogens (CLSI); conditions: Staphylococcus aureus NRS384
Summary of the method: as §1

[7] = test system: Staphylococcus aureus AUR131 007035; assay: MIC panel of challenge pathogens (CLSI); conditions: AUR131007035, Staphylococcus aureus AUR131 007035
Summary of the method: as §1

[8] = test system: Staphylococcus aureus AUR59 7005; assay: MIC panel of challenge pathogens (CLSI); conditions: AUR597005, Staphylococcus aureus AUR59 7005
Summary of the method: as §1

Bacillus cereus NCTC6349 = assay: MIC panel of challenge pathogens (CLSI); conditions: Bacillus cereus NCTC6349
Summary of the method: as §1

[9] = test system: Enterococcus faecium ATCC700221; assay: MIC panel of challenge pathogens (CLSI); conditions: Enterococcus faecium ATCC700221
Summary of the method: as §1

[10] = test system: Staphylococcus aureus EUP MRSA004; assay: MIC panel of challenge pathogens (CLSI); conditions: EUPMRSA004, Staphylococcus aureus EUP MRSA004
Summary of the method: as §1

[11] = test system: Staphylococcus aureus NRS382; assay: MIC panel of challenge pathogens (CLSI); conditions: Staphylococcus aureus NRS382
Summary of the method: as §1

[12] = test system: Staphylococcus aureus AUR60 7005; assay: MIC panel of challenge pathogens (CLSI); conditions: AUR607005, Staphylococcus aureus AUR60 7005
Summary of the method: as §1

[13] = test system: Staphylococcus aureus ATCC43300; assay: MIC panel of challenge pathogens (CLSI); conditions: Staphylococcus aureus ATCC43300
Summary of the method: as §1

[14] = test system: Staphylococcus aureus NRS1 (ATCC700699); assay: MIC panel of challenge pathogens (CLSI); conditions: Staphylococcus aureus NRS1 (ATCC700699)
Summary of the method: as §1

[15] = test system: Staphylococcus epidermidis NRS122; assay: MIC panel of challenge pathogens (CLSI); conditions: Staphylococcus epidermidis NRS122
Summary of the method: as §1

[16] = test system: Staphylococcus aureus EUP MRSA002; assay: MIC panel of challenge pathogens (CLSI); conditions: EUPMRSA002, Staphylococcus aureus EUP MRSA002
Summary of the method: as §1

E. coli D22 = assay: MIC, NCCLS M7-A6 broth microdilution, E. coli D22; conditions: Escherichia coli, D22, 16 to 20 h, 35 degrees Celsius
Summary of the method: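 Broth microdilution per NCCLS M7-A6 in cation-adjusted Mueller-Hinton broth, doubling dilutions, inoculum 5×10^5 CFU/mL, DMSO controls included. Read after 16–20 h at 35 °C in ambient air; MIC is lowest concentration preventing visible growth.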

Cc1cc(Cl)ccc1-c1cc(-c2nnn[nH]2)sc1-c1ccc(Cl)cc1C [DNM0488, 5-(4,5-Bis(4-chloro-2-methylphenyl)thiophen-2-yl)-1H-tetrazole]
MIC ([1]; read-out: 100% inhibition): 0.5 µg/mL (≈ 1.25 µM)
MIC50 ([1]; read-out: MIC50 (50%)): 0.25 µg/mL (≈ 0.623 µM)
MIC80 ([1]; read-out: MIC80 (80%)): 0.25 µg/mL (≈ 0.623 µM)
MIC ([2]; read-out: 100% inhibition): 0.5 µg/mL (≈ 1.25 µM)
MIC50 ([2]; read-out: MIC50 (50%)): 0.5 µg/mL (≈ 1.25 µM)
MIC80 ([2]; read-out: MIC80 (80%)): 0.5 µg/mL (≈ 1.25 µM)
MIC ([3]; read-out: 100% inhibition): 1 µg/mL (≈ 2.49 µM)
MIC50 ([3]; read-out: MIC50 (50%)): 0.5 µg/mL (≈ 1.25 µM)
MIC80 ([3]; read-out: MIC80 (80%)): 0.5 µg/mL (≈ 1.25 µM)
MIC ([4]; read-out: 100% inhibition): 0.5 µg/mL (≈ 1.25 µM)
MIC50 ([4]; read-out: MIC50 (50%)): 0.5 µg/mL (≈ 1.25 µM)
MIC80 ([4]; read-out: MIC80 (80%)): 0.5 µg/mL (≈ 1.25 µM)
MIC ([5]; read-out: 100% inhibition): 0.5 µg/mL (≈ 1.25 µM)
MIC50 ([5]; read-out: MIC50 (50%)): 0.5 µg/mL (≈ 1.25 µM)
MIC80 ([5]; read-out: MIC80 (80%)): 0.5 µg/mL (≈ 1.25 µM)
MIC ([6]; read-out: 100% inhibition): 0.5 µg/mL (≈ 1.25 µM)
MIC50 ([6]; read-out: MIC50 (50%)): 0.5 µg/mL (≈ 1.25 µM)
MIC80 ([6]; read-out: MIC80 (80%)): 0.5 µg/mL (≈ 1.25 µM)
MIC ([7]; read-out: 100% inhibition): 0.5 µg/mL (≈ 1.25 µM)
MIC50 ([7]; read-out: MIC50 (50%)): 0.5 µg/mL (≈ 1.25 µM)
MIC80 ([7]; read-out: MIC80 (80%)): 0.5 µg/mL (≈ 1.25 µM)
MIC ([8]; read-out: 100% inhibition): 0.5 µg/mL (≈ 1.25 µM)
MIC50 ([8]; read-out: MIC50 (50%)): 0.5 µg/mL (≈ 1.25 µM)
MIC80 ([8]; read-out: MIC80 (80%)): 0.5 µg/mL (≈ 1.25 µM)
MIC (Bacillus cereus NCTC6349; read-out: 100% inhibition): ≤ 0.25 µg/mL
MIC50 (Bacillus cereus NCTC6349; read-out: MIC50 (50%)): ≤ 0.25 µg/mL
MIC80 (Bacillus cereus NCTC6349; read-out: MIC80 (80%)): ≤ 0.25 µg/mL
MIC ([9]; read-out: 100% inhibition): 0.5 µg/mL (≈ 1.25 µM)
MIC50 ([9]; read-out: MIC50 (50%)): 0.25 µg/mL (≈ 0.623 µM)
MIC80 ([9]; read-out: MIC80 (80%)): 0.25 µg/mL (≈ 0.623 µM)
MIC ([10]; read-out: 100% inhibition): 0.5 µg/mL (≈ 1.25 µM)
MIC50 ([10]; read-out: MIC50 (50%)): 0.5 µg/mL (≈ 1.25 µM)
MIC80 ([10]; read-out: MIC80 (80%)): 0.5 µg/mL (≈ 1.25 µM)
MIC ([11]; read-out: 100% inhibition): 0.5 µg/mL (≈ 1.25 µM)
MIC50 ([11]; read-out: MIC50 (50%)): 0.5 µg/mL (≈ 1.25 µM)
MIC80 ([11]; read-out: MIC80 (80%)): 0.5 µg/mL (≈ 1.25 µM)
MIC ([12]; read-out: 100% inhibition): 0.5 µg/mL (≈ 1.25 µM)
MIC50 ([12]; read-out: MIC50 (50%)): 0.5 µg/mL (≈ 1.25 µM)
MIC80 ([12]; read-out: MIC80 (80%)): 0.5 µg/mL (≈ 1.25 µM)
MIC ([13]; read-out: 100% inhibition): 0.5 µg/mL (≈ 1.25 µM)
MIC50 ([13]; read-out: MIC50 (50%)): 0.5 µg/mL (≈ 1.25 µM)
MIC80 ([13]; read-out: MIC80 (80%)): 0.5 µg/mL (≈ 1.25 µM)
MIC ([14]; read-out: 100% inhibition): ≤ 0.25 µg/mL
MIC50 ([14]; read-out: MIC50 (50%)): ≤ 0.25 µg/mL
MIC80 ([14]; read-out: MIC80 (80%)): ≤ 0.25 µg/mL
MIC ([15]; read-out: 100% inhibition): 2 µg/mL (≈ 4.98 µM)
MIC50 ([15]; read-out: MIC50 (50%)): 1 µg/mL (≈ 2.49 µM)
MIC80 ([15]; read-out: MIC80 (80%)): 2 µg/mL (≈ 4.98 µM)
MIC ([16]; read-out: 100% inhibition): 1 µg/mL (≈ 2.49 µM)
MIC50 ([16]; read-out: MIC50 (50%)): 0.5 µg/mL (≈ 1.25 µM)
MIC80 ([16]; read-out: MIC80 (80%)): 1 µg/mL (≈ 2.49 µM)
MIC (E. coli D22): 125 µM (≈ 50.2 µg/mL)
